This test concerns the target T1, Serine protease 1 (Bos taurus) (UniProt P00760).
T1 sequence (whole entry): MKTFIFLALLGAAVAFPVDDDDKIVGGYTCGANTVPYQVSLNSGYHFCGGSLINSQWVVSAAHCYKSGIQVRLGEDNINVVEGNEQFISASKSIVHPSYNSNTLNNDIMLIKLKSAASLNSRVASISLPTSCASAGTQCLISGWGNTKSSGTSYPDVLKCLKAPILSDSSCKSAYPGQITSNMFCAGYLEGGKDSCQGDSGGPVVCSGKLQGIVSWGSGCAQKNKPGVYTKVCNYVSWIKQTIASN
Put plainly: Inhibition of bovine beta-trypsin using BAPNA as substrate assessed as […].

Positions of bridges follow the written chain, without caps; N, C: chain ends. Residues, ends and D or L forms follow the SMILES beside them.

Take `CC[C@H](C)[C@@H]1NC(=O)[C@H](CCCNC(=N)N)NC(=O)[C@H](CC(C)C)NC(=O)[C@H](CCCNC(=N)N)NC(=O)[C@@H]2CCCN2C(=O)[C@@H]2CCCN2C(=O)[C@H](Cc2cnc[nH]2)NC(=O)[C@@H]2CCCN2C(=O)[C@H](C(C)C)NC(=O)[C@@H]2CSSC[C@@H]3NC(=O)[C@H]([C@@H](C)CC)NC(=O)[C@H](CCC(N)=O)NC(=O)[C@H](CC(=O)O)NC(=O)[C@H]([C@@H](C)O)NC(=O)[C@H](CCCCN)NC(=O)[C@H](C)NC(=O)[C@@H](NC(=O)[C@H](CCC(=O)O)NC(=O)[C@H](CCC(=O)O)NC(=O)[C@H](CC(=O)O)NC(=O)[C@@H](N)CCC(=O)O)CSSC[C@H](NC(=O)[C@H](CSSC[C@@H](C(=O)N[C@@H](C)C(=O)O)NC(=O)[C@H](C(C)C)NC(=O)[C@H](Cc4ccccc4)NC1=O)NC(=O)[C@H](Cc1ccc(O)cc1)NC(=O)[C@H](CC(N)=O)NC(=O)[C@@H]1CCCN1C(=O)[C@H](C)NC(=O)[C@H](CC(N)=O)NC(=O)[C@@H]1CCCN1C(=O)[C@@H]1CCCN1C3=O)C(=O)N[C@@H](CO)C(=O)NCC(=O)N[C@@H](CO)C(=O)N2` (H-EDEECAKTDQICPPNAPNYCCSGSCVPHPPRLRIFVCA-OH; disulfide 5-21, 12-25, 20-37): the Activity was found to be 536 nM. Consider `CC[C@H](C)[C@@H]1NC(=O)[C@H](C)NC(=O)CNC(=O)[C@H](CO)NC(=O)[C@@H]2CCCN2C(=O)[C@H](CO)NC(=O)[C@@H](NC(=O)[C@@H](N)CCCCN)CSSC[C@@H]2NC(=O)[C@@H]3CSSC[C@@H](C(=O)N[C@@H](CCC(N)=O)C(=O)O)NC(=O)[C@H](C(C)C)NC(=O)[C@H](Cc4ccccc4)NC(=O)[C@H]([C@@H](C)CC)NC(=O)[C@H](CCCNC(=N)N)NC(=O)[C@H](CC(C)C)NC(=O)[C@H]([C@@H](C)CC)NC(=O)[C@@H]4CCCN4C(=O)[C@H](Cc4cnc[nH]4)NC(=O)[C@@H]4CCCN4C(=O)[C@H](C(C)C)NC(=O)[C@H](CSSC[C@H](NC1=O)C(=O)N[C@@H](CO)C(=O)NCC(=O)N[C@@H](Cc1ccccc1)C(=O)NCC(=O)N1CCC[C@H]1C(=O)N1CCC[C@H]1C(=O)N[C@@H](CCC(=O)O)C(=O)N[C@@H](CCC(N)=O)C(=O)N3)NC(=O)[C@H](C)NC(=O)CNC(=O)[C@H](CO)NC2=O` (H-KCSPSGAICSGFGPPEQCCSGACVPHPILRIFVCQ-OH; disulfide 2-19, 9-23, 18-34), for which the Activity turned out to be 185 nM.
